Counter-ions that a name gives are not always drawn.
The compounds below were run against T1, rat squalene epoxidase (Rattus norvegicus, UniProt P52020) (assay: Squalene epoxidase inhibiting activity (3H-squalene to squalene-2,3-epoxide, solubilized liver microsome fraction)). Conditions: 8 µM 3H-squalene, 37 °C, 30 minutes, read-out: 50 % inhibitory concentration (IC50).
T1 construct: Livers were extracted and homogenized; from tissue; host or cells: liver of SD-strain female rats; microsomes solubilized with 2 % Triton X-100, 105000 x g supernatant
Type: biochemical
Experimental: The rat squalene epoxidase was prepared by the method described in J. Biol. Chem., vol.
SD-strain female rats were killed by exsanguination. Livers were extracted and homogenized with in the presence of 2 volumes of 0.1M Tris-HCl buffer (pH 7.5). The homogenate was centrifuged at 9750 Xg for 10 minutes. The supernatant fraction was further centrifuged at 105000 Xg for 1 hour. The sediment was washed with 0.1M Tris-HCl buffer (pH 7.5), and then centrifuged at 105000 Xg for 1 hour. The microsomes obtained were suspended in 0.1M Tris-HCl buffer (pH 7.5) so that the amount of proteins was 40 mg/ml, and under ice cooling, the suspension was stirred in the presence of 2 % Triton X-100 to solubilize the enzyme. After the solubilization, the solution was diluted to a Triton X-100 concentration of 0.5 % with 1 mM EDTA and 1 mM dithiothreitol, and centrifuged at 105000 Xg for 1 hour. The resulting supernatant fraction was used in the following test as a squalene epoxidase fraction.
The squalene epoxidase activity was assayed in accordance with the method described in J. Biol. Chem., vol.
Three microliters of a dimethyl sulfoxide solution of a test drug was added to a solution composed of 0.2 ml of the squalene epoxidase fraction prepared in (1) [proteins 0.4 mg, 0.5 % Triton X-100, […] Tris-HCl buffer (pH 7.5)], 100 µM FAD, 1 mM NADPH, 1 mM EDTA and 8 µM ³H-squalene-Tween 80 emulsion to adjust the total amount of the solution to 0.3 ml. The solution was incubated at 37 °C for 30 minutes with shaking. Then, 0.3 ml of a 10 % methanolic potassium hydroxide was added to stop the reaction, and the reaction mixture was left to stand at room temperature for 1 hour. The non-saponified material was extracted with petroleum ether, and the solvent was evaporated under a nitrogen stream. […] The position of the resulting ³H-squalene-2,3-epoxide on TLC was determined using ergosterol acetate as a marker, and the ³H-squalene-2,3-epoxide portion on the TLC was cut off. The TLC strip was immersed in a toluene-type scintillator, and measured by a liquid scintillation counter.

T1 sequence (P52020 whole entry): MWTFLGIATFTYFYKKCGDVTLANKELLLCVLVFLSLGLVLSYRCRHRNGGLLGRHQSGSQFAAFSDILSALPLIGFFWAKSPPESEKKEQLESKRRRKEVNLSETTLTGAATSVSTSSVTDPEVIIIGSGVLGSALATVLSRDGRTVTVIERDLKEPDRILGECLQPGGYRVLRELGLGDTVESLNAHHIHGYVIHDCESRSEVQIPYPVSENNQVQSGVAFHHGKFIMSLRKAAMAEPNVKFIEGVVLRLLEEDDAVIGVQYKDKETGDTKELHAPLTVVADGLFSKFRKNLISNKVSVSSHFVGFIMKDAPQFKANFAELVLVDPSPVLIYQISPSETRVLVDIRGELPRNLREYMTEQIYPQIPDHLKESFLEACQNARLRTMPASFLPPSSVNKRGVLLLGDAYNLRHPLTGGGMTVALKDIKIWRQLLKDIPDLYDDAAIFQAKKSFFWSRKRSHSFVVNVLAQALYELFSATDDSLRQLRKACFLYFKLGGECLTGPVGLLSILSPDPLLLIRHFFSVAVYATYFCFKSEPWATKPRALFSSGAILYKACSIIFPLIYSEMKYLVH

| SMILES | IC50 [nM] |
| --- | --- |
| CC(C)(C)C#C/C=C/CNCc1cccc(OCc2ccccc2)c1 [Compound 1, (E)-N-(6,6-dimethyl-2-hepten-4-ynyl)-3-benzyloxybenzylamine] | 6800 |
| CN(C/C=C/C#CC(C)(C)C)Cc1cccc(OCc2cccc(Cl)c2)c1 [Compound 8, (E)-N-(6,6-dimethyl-2-hepten-4-ynyl)-N-methyl-3-(3-chlorobenzyloxy)benzylamine] | 2900 |
| CN(C/C=C/C#CC(C)(C)C)Cc1cccc(OCc2ccc(F)cc2)c1 [Compound 10, (E)-N-(6,6-dimethyl-2-hepten-4-ynyl)-N-methyl-3-(4-fluorobenzyloxy)benzylamine] | 4700 |
| COc1ccc(COc2cccc(CN(C)C/C=C/C#CC(C)(C)C)c2)cc1 [Compound 12, (E)-N-(6,6-dimethyl-2-hepten-4-ynyl)-N-methyl-3-(4-methoxybenzyloxy)benzylamine] | 6000 |
| CC(Oc1cccc(CN(C)C/C=C/C#CC(C)(C)C)c1)c1ccccc1 (stereo not drawn) [Compound 16, (E)-N-(6,6-dimethyl-2-hepten-4-ynyl)-N-methyl-3-(alpha-phenethyloxy)benzylamine] | 1400 |
| CN(C/C=C\C#CC(C)(C)C)Cc1cccc(OCc2cccc3ccccc23)c1 [Compound 19, (Z)-N-(6,6-dimethyl-2-hepten-4-ynyl)-N-methyl-3-(1-naphthylmethyloxy)benzylamine] | 3100 |
| Cc1ccc(CN(C)C/C=C/C#CC(C)(C)C)cc1OCc1ccccc1 [Compound 28, (E)-(6,6-dimethyl-2-hepten-4-ynyl)-N-methyl-3-benzyloxy-4-methylbenzylamine] | 5600 |
| CN(C/C=C/C#CC(C)(C)C)Cc1cccc(OCc2ccco2)c1 [Compound 34, (E)-N-(6,6-dimethyl-2-hepten-4-ynyl)-N-methyl-3-furfuryloxybenzylamine] | 1700 |
| C=CCN(C/C=C/C#CC(C)(C)C)Cc1cccc(OCc2ccccc2)c1 [Compound 41, (E)-N-allyl-N-(6,6-dimethyl-2-hepten-4-ynyl)-3-benzyloxybenzylamine] | 2100 |
| C#CCN(C/C=C/C#CC(C)(C)C)Cc1cccc(OCc2ccccc2)c1 [Compound 42, (E)-N-(6,6-dimethyl-2-hepten-4-ynyl)-N-propargyl-3-benzyloxybenzylamine] | 9600 |
| CC(C)(C)C#C/C=C/CN(Cc1cccc(OCc2ccccc2)c1)C1CC1 [Compound 43, (E)-N-cyclopropyl-N-(6,6-dimethyl-2-hepten-4-ynyl)-3-benzyloxybenzylamine] | 3900 |
| Cc1cc(CN(C)C/C=C/C#CC(C)(C)C)cc(OCc2ccccc2)c1 [Compound 48, (E)-N-(6,6-dimethyl-2-hepten-4-ynyl)-N-methyl-3-benzyloxy-5-methylbenzylamine hydrochloride] | 5100 |
| CN(C/C=C/C#CC(C)(C)C)Cc1ccc(F)c(OCc2ccccc2)c1 [Compound 49, (E)-N-(6,6-dimethyl-2-hepten-4-ynyl)-N-methyl-3-benzyloxy-4-fluorobenzylamine] | 4900 |
| CN(C/C=C/C#CC(C)(C)C)Cc1ccc(O)c(OCc2ccccc2)c1 [Compound 50, (E)-N-(6,6-dimethyl-2-hepten-4-ynyl)-N-methyl-3-benzyloxy-4-hydroxybenzylamine hydrochloride] | 2100 |
| COc1ccccc1COc1cccc(CN(C)C/C=C/C#CC(C)(C)C)c1 [Compound 51, (E)-N-(6,6-dimethyl-2-hepten-4-ynyl)-N-methyl-3-(2-methoxybenzyloxy)benzylamine hydrochloride] | 1100 |
| COc1cccc(COc2cccc(CN(C)C/C=C/C#CC(C)(C)C)c2)c1 [Compound 52, (E)-N-(6,6-dimethyl-2-hepten-4-ynyl)-N-methyl-3-(3-methoxybenzyloxy)benzylamine hydrochloride] | 1400 |
| Cc1cccc(COc2cccc(CN(C)C/C=C/C#CC(C)(C)C)c2)c1 [Compound 53, (E)-N-(6,6-dimethyl-2-hepten-4-ynyl)-N-methyl-3-(3-methylbenzyloxy)benzylamine] | 660 |
| Cc1ccc(COc2cccc(CN(C)C/C=C/C#CC(C)(C)C)c2)cc1 [Compound 54, (E)-N-(6,6-dimethyl-2-hepten-4-ynyl)-N-methyl-3-(4-methylbenzyloxy)benzylamine] | 1800 |

| SMILES | IC50 [nM] |
| --- | --- |
| Cc1cccc(COc2cccc(CN(C)C/C=C/C#CC(C)(C)C)c2)c1C [Compound 55, (E)-N-(6,6-dimethyl-2-hepten-4-ynyl)-N-methyl-3-(2,3-dimethylbenzyloxy)benzylamine hydrochloride] | 600 |
| CN(C/C=C/C#CC(C)(C)C)Cc1cccc(OCc2ccccc2Cl)c1 [Compound 56, (E)-N-(6,6-dimethyl-2-hepten-4-ynyl)-N-methyl-3-(2-chlorobenzyloxy)benzylamine] | 2100 |
| CN(C/C=C/C#CC(C)(C)C)Cc1cccc(OCc2cccc(C(F)(F)F)c2)c1 [Compound 57, (E)-N-(6,6-dimethyl-2-hepten-4-ynyl)-N-methyl-3-(3-trifluoromethylbenzyloxy)benzylamine hydrochloride] | 3100 |
| CN(C/C=C/C#CC(C)(C)C)Cc1cccc(OCCCc2ccccc2)c1 [Compound 58, (E)-N-(6,6-dimethyl-2-hepten-4-ynyl)-N-methyl-3-(3-phenylpropoxy)benzylamine hydrochloride] | 7900 |
| CCc1ccccc1COc1cccc(CN(C)C/C=C/C#CC(C)(C)C)c1 [Compound 62, (E)-N-(6,6-dimethyl-2-hepten-4-ynyl)-N-methyl-3-(2-ethylbenzyloxy)benzylamine hydrochloride] | 360 |
| CN(C/C=C/C#CC(C)(C)C)Cc1cccc(OC/C=C/c2ccccc2)c1 [Compound 63, N-[(E)-6,6-dimethyl-2-hepten-4-ynyl]-N-methyl-3-[(E)-3-phenyl-2-propenyloxy]benzylamine hydrochloride] | 5400 |
| CN(C/C=C/C#CC(C)(C)C)Cc1cccc(OCc2cccc(O)c2)c1 [Compound 65, (E)-N-(6,6-dimethyl-2-hepten-4-ynyl)-N-methyl-3-(3-hydroxybenzyloxy)benzylamine] | 4600 |
| CN(C/C=C/C#CC(C)(C)C)Cc1cccc(OCc2ccccc2F)c1 [Compound 66, (E)-N-(6,6-dimethyl-2-hepten-4-ynyl)-N-methyl-3-(2-fluorobenzyloxy)benzylamine hydrochloride] | 1200 |
| CN(C/C=C/C#CC(C)(C)C)Cc1cccc(OCc2ccccc2C#N)c1 [Compound 67, (E)-N-(6,6-dimethyl-2-hepten-4-ynyl)-N-methyl-3-(2-cyanobenzyloxy)benzylamine hydrochloride] | 2400 |
| CN(C/C=C/C#CC(C)(C)C)Cc1cccc(OCc2ccccc2C(F)(F)F)c1 [Compound 68, (E)-N-(6,6-dimethyl-2-hepten-4-ynyl)-N-methyl-3-(2-trifluoromethylbenzyloxy)benzylamine hydrochloride] | 1200 |
| C=C(C)c1cccc(COc2cccc(CN(C)C/C=C/C#CC(C)(C)C)c2)c1 [Compound 69, (E)-N-(6,6-dimethyl-2-hepten-4-ynyl)-N-methyl-3-(3-isopropenylbenzyloxy)benzylamine] | 510 |
| CC(C)=Cc1cccc(COc2cccc(CN(C)C/C=C/C#CC(C)(C)C)c2)c1 [Compound 70, (E)-N-(6,6-dimethyl-2-hepten-4-ynyl)-N-methyl-3-[3-(2-methyl-1-propenyl)benzyloxy]benzylamine] | 3100 |
| C=C(C)Cc1cccc(COc2cccc(CN(C)C/C=C/C#CC(C)(C)C)c2)c1 [Compound 71, (E)-N-(6,6-dimethyl-2-hepten-4-ynyl)-N-methyl-3-[3-(2-methyl-2-propenyl)benzyloxy]benzylamine] | 540 |
| CC(C)=CCc1cccc(COc2cccc(CN(C)C/C=C/C#CC(C)(C)C)c2)c1 [Compound 72, (E)-N-(6,6-dimethyl-2-hepten-4-ynyl)-N-methyl-3-[3-(3-methyl-2-butenyl)benzyloxy]benzylamine] | 9700 |
| CC(C)=CCOc1cccc(COc2cccc(CN(C)C/C=C/C#CC(C)(C)C)c2)c1 [Compound 73, (E)-N-(6,6-dimethyl-2-hepten-4-ynyl)-N-methyl-3-[3-(3-methyl-2-butenyloxy)benzyloxy]benzylamine] | 2300 |
| CN(C/C=C/C#CC(C)(C)C)Cc1cccc(OCc2cccc(-c3ccccc3)c2)c1 [Compound 74, (E)-N-(6,6-dimethyl-2-hepten-4-ynyl)-N-methyl-3-(3-phenylbenzyloxy)benzylamine hydrochloride] | 570 |
| CN(C/C=C/C#CC(C)(C)C)Cc1cccc(OCc2cccc(-c3ccco3)c2)c1 [Compound 75, (E)-N-(6,6-dimethyl-2-hepten-4-ynyl)-N-methyl-3-[3-(2-furyl)benzyloxy]benzylamine hydrochloride] | 140 |

Source: patent publication EP0318860B1, “Substituted alkylamine derivatives” (BANYU PHARMACEUTICAL CO., LTD., priority 1987, dated 1989)
